Consider 18 compounds from patent US20240261249A1, “NOVEL SQUARAMIDE DERIVATIVE AND USE THEREOF” (PUSAN NATIONAL UNIVERSITY INDUSTRY-UNIVERSITY COOPERATION …, priority 2021, published 2024).

Where two headings read alike, the source gives them in different places.

Common to all, as to type: cell-based
One assay relates to Phospho-eIF2α (Ser51). Description: Phospho-eIF2α (Ser51) Sandwich ELISA in K562 cells. To be noted: Homo sapiens, K562, 6 h, serum-free RPMI, 10 μM compound, control = 1, read-out: eIF2α phosphorylation, absorbance standardized to control (DMSO-treated) set to 1, at 10 μM. Here is the method: Pathscan Phospho-eIF2α (Ser51) Sandwich ELISA Kit #7286 from Cell signaling was used. The K562 cell line was cultured in serum-free RPMI medium at 37° C. in the presence of 5% CO2. Cells were treated with test compounds at a concentration of 10 μM. Six hours after compound treatment, the cells were lysed with a lysis buffer included in the kit to obtain 50 μg of protein by quantification. Afterwards, ELISA assay was performed according to the manufacturer's protocol to obtain absorbance. The absorbance for each obtained compound was standardized to a value of which the control (DMSO-treated) is set to 1.
A general note: ELISA stands for enzyme-linked immunosorbent assay.

For another assay, the system named is K562 cell line. Description: CCK-8 anti-proliferative assay, K562. To be noted: Homo sapiens, 72 h, K562, culture for 3 days. Here is the method:
CCK-8 assay (cell counting kit-8 assay, Dojindo, Kumamoto, Japan) was performed. The K562 cell line was cultured in RPMI medium supplemented with 10% FBS and 1% ABAM at 37° C. in the presence of 5% CO2. Cells were treated with test compounds at concentrations of 0 μM, 1.25 μM, 2.5 μM, 5 μM, 10 μM, and 20 μM, respectively. After culture for 3 days, 10 μL of CCK-8 solution was treated and cultured for 4 hours. Subsequently, the absorbance was measured at 450 nm to obtain the IC50 value of each compound.
The experimental values for the K562 cell line are identical to biological Example 2.
For orientation: Formazan colour is commonly taken as a measure of viable cells.

For assay [1], the system named is PBMC (peripheral blood monocyte cells isolated from normal donors). In words: CCK-8 assay, PBMC (normal cells). To be noted: for IC50: 72 h, PBMC normal cells, culture for 3 days, CCK-8, tested 0-20 μM; for SI (selectivity index): K562 cells compared to PBMC. Here is the method:
PBMC (peripheral blood monocyte cells isolated from normal donors) cell lines were dispensed in RPMI medium supplemented with 10% FBS and 1% ABAM at 37° C. in the presence of 5% CO2, and then the test compounds were treated at concentrations of 0 μM, 1.25 μM, 2.5 μM, 5 μM, 10 μM, and 20 μM, respectively. After culture for 3 days, 10 μL of CCK-8 solution was treated and cultured for 4 hours. Subsequently, the absorbance at 450 nm was measured to obtain the IC50 value of each compound.

Where [2] appears, read: CCK-8, Table 3 (identical to Example 2), tested 0-20 μM, read-out: IC50 K562.

Usually IC50 stands for the concentration that inhibits the measured activity by half. Take `N#Cc1ccc(O[C@H]2CC[C@H](Nc3c(Nc4cccc(Cl)c4)c(=O)c3=O)CC2)cc1` [Compound 19, 4-(((1,4-trans)-4-((2-((3-Chlorophenyl)amino)-3,4-dioxocyclobut-1-en-1-yl)amino)cyclohexyl)oxy)benzonitrile]: the activity at 10 µM in the assay with Phospho-eIF2α (Ser51) came to 111%. Moreover, the IC50 in the assay with K562 cell line (CCK-8, Table 2, read-out: IC50) is more than 20 µM.

With `O=c1c(Nc2cccc(Cl)c2)c(N[C@H]2CC[C@H](Oc3ccc([N+](=O)[O-])cc3)CC2)c1=O` [Compound 20, 3-((3-Chlorophenyl)amino)-4-(((1,4-trans)-4-(4-nitrophenoxy)cyclohexyl)amino)cyclobut-3-ene-1,2-dione], the activity at 10 µM with Phospho-eIF2α (Ser51) turned out to be 190%. Also, the IC50 was determined as 16.1 µM in the assay with K562 cell line (CCK-8, Table 2, read-out: IC50); 16.1 µM in the assay with K562 cell line (setting [2]); 20 µM in assay [1]. For the same compound, the “SI (selectivity index)” value in assay [1] stood at 1.40.

As to `O=c1c(Nc2cccc(C(F)(F)F)c2)c(N[C@H]2CC[C@H](Oc3ccc(C(F)(F)F)cc3)CC2)c1=O` [Compound 23, 3-(((1,4-trans)-4-(4-(Trifluoromethyl)phenoxy)cyclohexyl)amino)-4-((3-(trifluoromethyl)phenyl)amino)cyclobut-3-ene-1,2-dione], the activity at 10 µM in the assay on Phospho-eIF2α (Ser51) was found to be 201%. Moreover, the half-inhibitory concentration (IC50) is 3.96 µM in the assay on K562 cell line (CCK-8, Table 2, read-out: IC50); 3.96 µM in the assay on K562 cell line (setting [2]); 10.8 µM in assay [1]. The “SI (selectivity index)” value in assay [1] amounted to 2.77.

Consider `N#Cc1ccc(O[C@H]2CC[C@H](Nc3c(Nc4cccc(C(F)(F)F)c4)c(=O)c3=O)CC2)cc1` [Compound 24, 4-(((1,4-trans)-4-((3,4-Dioxo-2-((3-(trifluoromethyl)phenyl)amino)cyclobut-1-en-1-yl)amino)cyclohexyl)oxy)benzonitrile], for which the activity at 10 µM with Phospho-eIF2α (Ser51) came out at 195%. The half-inhibitory concentration (IC50) with K562 cell line (CCK-8, Table 2, read-out: IC50) turned out to be 5.94 µM; in the assay on K562 cell line (setting [2]), 5.94 µM; in assay [1], 22.5 µM. Further, the “SI (selectivity index)” value in assay [1] is listed as 3.82.

As for `O=c1c(Nc2cccc(C(F)(F)F)c2)c(N[C@H]2CC[C@H](Oc3ccc([N+](=O)[O-])cc3)CC2)c1=O` [Compound 25, 3-(((1,4-trans)-4-(4-Nitrophenoxy)cyclohexyl)amino)-4-((3-(trifluoromethyl)phenyl)amino)cyclobut-3-ene-1,2-dione], the activity at 10 µM in the assay on Phospho-eIF2α (Ser51) amounted to 140%. Moreover, the IC50 worked out at 12.2 µM in the assay with K562 cell line (CCK-8, Table 2, read-out: IC50); 12.2 µM in the assay with K562 cell line (setting [2]); 16 µM in assay [1]. The “SI (selectivity index)” value in assay [1] stood at 1.27.

As to `CS(=O)(=O)c1ccc(O[C@H]2CC[C@H](Nc3c(Nc4cccc(C(F)(F)F)c4)c(=O)c3=O)CC2)cc1` [Compound 26, 3-(((1,4-trans)-4-(4-(Methylsulfonyl)phenoxy)cyclohexyl)amino)-4-((3-(trifluoromethyl)phenyl)amino)cyclobut-3-ene-1,2-dione], the activity at 10 µM in the assay on Phospho-eIF2α (Ser51) stood at 133%. The IC50 in the assay with K562 cell line (CCK-8, Table 2, read-out: IC50) was more than 20 µM.

In the case of `CC(C)(C)c1cccc(Nc2c(N[C@H]3CC[C@H](Oc4ccc(C(F)(F)F)cc4)CC3)c(=O)c2=O)c1` [Compound 28, 3-((3-(tert-Butyl)phenyl)amino)-4-(((1,4-trans)-4-(4-(trifluoromethyl)phenoxy)cyclohexyl)amino)cyclobut-3-ene-1,2-dione], the IC50 with K562 cell line (CCK-8, Table 2, read-out: IC50) came to 6.8 µM; with K562 cell line (setting [2]), 6.8 µM; in assay [1], 19.4 µM. Also, in assay [1], the “SI (selectivity index)” value was determined as 2.86.

Turning to `CC(C)(C)c1cccc(Nc2c(N[C@H]3CC[C@H](Oc4ccc(C#N)cc4)CC3)c(=O)c2=O)c1` [Compound 29, 4-(((1,4-trans)-4-((2-((3-(tert-Butyl)phenyl)amino)-3,4-dioxocyclobut-1-en-1-yl)amino)cyclohexyl)oxy)benzonitrile], in the assay on Phospho-eIF2α (Ser51), the activity at 10 µM was found to be 176%. In addition, the IC50 in the assay on K562 cell line (CCK-8, Table 2, read-out: IC50) was determined as 4.09 µM; in the assay on K562 cell line (setting [2]) it was 4.09 µM; in assay [1] it was 17 µM. The “SI (selectivity index)” value in assay [1] was 3.82.

`CC(C)(C)c1cccc(Nc2c(N[C@H]3CC[C@H](Oc4ccc([N+](=O)[O-])cc4)CC3)c(=O)c2=O)c1` [Compound 30, 3-((3-(tert-Butyl)phenyl)amino)-4-(((1,4-trans)-4-(4-nitrophenoxy)cyclohexyl)amino)cyclobut-3-ene-1,2-dione]: the activity at 10 µM with Phospho-eIF2α (Ser51) was determined as 112%. The half-inhibitory concentration (IC50) turned out to be 5.09 µM in the assay on K562 cell line (CCK-8, Table 2, read-out: IC50); 5.09 µM in the assay on K562 cell line (setting [2]); 12.8 µM in assay [1]. Besides, the “SI (selectivity index)” value in assay [1] is on record as 2.61.

For the compound `CC(C)(C)c1cccc(Nc2c(N[C@H]3CC[C@H](Oc4ccc(S(C)(=O)=O)cc4)CC3)c(=O)c2=O)c1` [Compound 31, 3-((3-(tert-Butyl)phenyl)amino)-4-(((1,4-trans)-4-(4-(methylsulfonyl)phenoxy)cyclohexyl)amino)cyclobut-3-ene-1,2-dione], the activity at 10 µM in the assay with Phospho-eIF2α (Ser51) was 150%. Also, the IC50 in the assay with K562 cell line (CCK-8, Table 2, read-out: IC50) came out at 5.69 µM; in the assay with K562 cell line (setting [2]), 5.69 µM; in assay [1], 35.1 µM. Moreover, the “SI (selectivity index)” value in assay [1] was found to be 6.10.

For `COc1cccc(Nc2c(N[C@H]3CC[C@H](Oc4ccc([N+](=O)[O-])cc4)CC3)c(=O)c2=O)c1` [Compound 35, 3-((3-Methoxyphenyl)amino)-4-(((1,4-trans)-4-(4-nitrophenoxy)cyclohexyl)amino)cyclobut-3-ene-1,2-dione], in the assay on Phospho-eIF2α (Ser51), the activity at 10 µM came out at 105%. Besides, the IC50 with K562 cell line (CCK-8, Table 2, read-out: IC50) is more than 20 µM.

On to `CS(=O)(=O)c1ccc(O[C@H]2CC[C@H](Nc3c(Nc4ccc(C(F)(F)F)cc4)c(=O)c3=O)CC2)cc1` [Compound 49, 3-(((1,4-trans)-4-(4-(Methylsulfonyl)phenoxy)cyclohexyl)amino)-4-((4-(trifluoromethyl)phenyl)amino)cyclobut-3-ene-1,2-dione], for which, in the assay with Phospho-eIF2α (Ser51), the activity at 10 µM came out at 102%. Also, in the assay with K562 cell line (CCK-8, Table 2, read-out: IC50), the IC50 is more than 20 µM.

As to `O=c1c(Nc2ccccc2C(F)(F)F)c(N[C@H]2CC[C@H](Oc3ccc(C(F)(F)F)cc3)CC2)c1=O` [Compound 70, 3-(((1,4-trans)-4-(4-(Trifluoromethyl)phenoxy)cyclohexyl)amino)-4-((2-(trifluoromethyl)phenyl)amino)cyclobut-3-ene-1,2-dione], in the assay with Phospho-eIF2α (Ser51), the activity at 10 µM was found to be 194%. Further, the IC50 in the assay on K562 cell line (CCK-8, Table 2, read-out: IC50) was more than 20 µM.

For `N#Cc1ccc(O[C@H]2CC[C@H](Nc3c(Nc4ccccc4C(F)(F)F)c(=O)c3=O)CC2)cc1` [Compound 71, 4-(((1,4-trans)-4-((3,4-Dioxo-2-((2-(trifluoromethyl)phenyl)amino)cyclobut-1-en-1-yl)amino)cyclohexyl)oxy)benzonitrile], in the assay on Phospho-eIF2α (Ser51), the activity at 10 µM came to 180%. Moreover, the half-inhibitory concentration (IC50) in the assay on K562 cell line (CCK-8, Table 2, read-out: IC50) was more than 20 µM.

As to `O=c1c(Nc2ccccc2C(F)(F)F)c(N[C@H]2CC[C@H](Oc3ccc([N+](=O)[O-])cc3)CC2)c1=O` [Compound 72, 3-(((1,4-trans)-4-(4-Nitrophenoxy)cyclohexyl)amino)-4-((2-(trifluoromethyl)phenyl)amino)cyclobut-3-ene-1,2-dione], the activity at 10 µM with Phospho-eIF2α (Ser51) came out at 149%. Besides, the half-maximal inhibitory concentration (IC50) with K562 cell line (CCK-8, Table 2, read-out: IC50) was more than 20 µM.

As to `N#Cc1cc(Nc2c(N[C@H]3CC[C@H](Oc4ccc(C(F)(F)F)cc4)CC3)c(=O)c2=O)cc(C(F)(F)F)c1` [Compound 83, 3-((3,4-Dioxo-2-(((1,4-trans)-4-(4-(trifluoromethyl)phenoxy)cyclohexyl)amino)cyclobut-1-en-1-yl)amino)-5-(trifluoromethyl)benzonitrile], the activity at 10 µM in the assay with Phospho-eIF2α (Ser51) came out at 184%. Besides, the half-maximal inhibitory concentration (IC50) with K562 cell line (CCK-8, Table 2, read-out: IC50) came to 4 µM; with K562 cell line (setting [2]) it was 4 µM; in assay [1], 19.3 µM. In addition, the “SI (selectivity index)” value in assay [1] is given as 4.46.

Consider `N#Cc1ccc(O[C@H]2CC[C@H](Nc3c(Nc4cc(C#N)cc(C(F)(F)F)c4)c(=O)c3=O)CC2)cc1` [Compound 84, 3-((2-(((1,4-trans)-4-(4-Cyanophenoxy)cyclohexyl)amino)-3,4-dioxocyclobut-1-en-1-yl)amino)-5-(trifluoromethyl)benzonitrile], for which, in the assay on Phospho-eIF2α (Ser51), the activity at 10 µM stood at 143%. The half-maximal inhibitory concentration (IC50) with K562 cell line (CCK-8, Table 2, read-out: IC50) was found to be 10.1 µM; in the assay on K562 cell line (setting [2]), 10.1 µM; in assay [1], 29.4 µM. In addition, the “SI (selectivity index)” value in assay [1] worked out at 2.26.

As to `N#Cc1cc(Nc2c(N[C@H]3CC[C@H](Oc4ccc([N+](=O)[O-])cc4)CC3)c(=O)c2=O)cc(C(F)(F)F)c1` [Compound 85, 3-((2-(((1,4-trans)-4-(4-Nitrophenoxy)cyclohexyl)amino)-3,4-dioxocyclobut-1-en-1-yl)amino)-5-(trifluoromethyl)benzonitrile], the activity at 10 µM in the assay with Phospho-eIF2α (Ser51) came to 116%. Further, the half-inhibitory concentration (IC50) in the assay with K562 cell line (CCK-8, Table 2, read-out: IC50) is more than 20 µM.
